The values below come from patent US20260265267A1, “NOVEL COMPOUNDS WITH MTORC2-INHIBITORY ACTIVITY AND USES THEREOF” (Aliad Biopharma, priority 2023, published 2026).

SMILES strings stand for the structures.

The target in assay [1] is T1, mTORC2 (Homo sapiens, UniProt P42345).
T1 construct: the following experiments were conducted in HeLa cells; endogenous in cells; host or cells: HeLa
Put plainly: mTORC2 inhibitory activity in HeLa cells (Akt Ser473 phosphorylation, Western blot). It counts as cell-based. The note with it: for selective inhibition of mTORC2: 40 μM, versus mTORC1; for selective inhibition of mTORC2 / remaining activity at 40 µM: 9 hours; for remaining activity at 40 µM: read-out: pSer473-AKT/AKT (% control); for inhibition at 40 µM: HeLa, 9 h, read-out: reduction in Akt Ser473 phosphorylation compared to the control group. The method, then:
(§1) Specifically, HeLa cells were cultured in a 5% CO2 incubator at 37° C. in DMEM (Dulbecco's Modified Eagles Media) medium supplemented with 10% FBS, penicillin (100 unit/ml), and streptomycin (100 μg/ml). Cultivation was started by seeding 4×10^5 cells in a 100 mm culture dish, and subculture was carried out every 3 days.
(§2) Human cell line HeLa cells were seeded in a 60 mm culture dish at a density of 2×10^5 cells/plate, and cultured for 24 hours. Then, HeLa cells were treated with 70 types of compounds at a concentration of 40 μM each for 9 hours. HeLa cells were washed twice with cold 1×PBS, and then lysed with 100 μl of RIPA buffer (50 mM Tris-HCl (pH7.4), 0.25% sodium deoxycholate, 50 mM NaF, 1% NP-40, 150 mM NaCl, 1 mM β-glycerophosphate, 1 mM PMSF, 1 mM NaVO4, 1 μg/ml leupeptin, 1 μg/ml pepstatin A, 10 nM calyculin A, 10 μg/ml aprotinin, 1 mM EDTA) to hemolyze the cell membrane. Then, the lysates were centrifuged at 12,000 rpm at 4° C. for 10 minutes to collect the supernatant, which is cell lysate. Protein concentration in the cell lysate was determined using the BCA protein assay kit (Thermo Fisher Scientific), and equal amounts of protein were separated by SDS-PAGE.
(§3) Western blot analysis was performed by the following method. […] After washing the membrane three times for 5 minutes each with TBS-T buffer, it was incubated with primary antibodies diluted in TBS-T buffer containing 5% skim milk or 5% BSA overnight at 4° C. Subsequently, the membrane was washed three times for 5 minutes each with TBS-T buffer, and then incubated with secondary antibodies diluted in TBS-T buffer containing 5% skim milk at room temperature for 30 minutes. The membrane was washed five times for 5 minutes each with TBS-T buffer containing 5% skim milk, and then the protein bands bound by the secondary antibody were detected using a chemiluminescence method. The primary antibodies used were Akt (cell signaling, #4691), pAkt(S473) (Cell signaling, #4060), p70S6K (Cell signaling, #S6198), pp70S6K(T389) (cell signaling, #9205S), LC3-II (MBL, #PM036), and the secondary antibodies used were HRP conjugated anti-rabbit (Jackson immunoresearch laboratory, #711-035-152) and HRP conjugated anti-mouse IgG (Jackson immunoresearch laboratory, #515-035-072).
As an mTORC2 activity indicator in HeLa cells, the level of Akt Ser473 phosphorylation was selected as a marker, and the phosphor-Akt (Ser473) signal obtained from Western blot analysis was normalized to the pan-Akt signal, and the data were expressed as a percentage relative to the control group treated with DMSO only, which is a vehicle.

The target in assay [2] is T2, mTORC1 (Homo sapiens, UniProt P42345).
T2 construct: the following experiments were conducted in HeLa cells; endogenous in cells; host or cells: HeLa
Kind of assay: mTORC1 inhibitory activity in HeLa cells (p70S6K Thr389 phosphorylation, Western blot). Conditions: for remaining activity at 40 µM: 9 hours, read-out: pThr389-S6K/S6K (% control); for inhibition at 40 µM: HeLa, 9 h, read-out: reduction in p70S6K Thr389 phosphorylation compared to the control group. It counts as cell-based. The method, then:
as §1, §2, §3
As an mTORC1 activity indicator in HeLa cells, the level of p70S6K Thr389 phosphorylation was selected as a marker, and the level of phosphor-p70S6K (Thr389) signal measured by Western blot analysis was normalized to a level of pan-p70S6K signal, and then expressed as a percentage of the control group treated with only DMSO, which is a vehicle.

Assay [3] concerns LC3-II. Kind of assay: LC3-II formation as indicator of autophagy in HeLa cells (Western blot). It counts as cell-based, human. Conditions: Homo sapiens, 9 hours, read-out: LC3-II (% control). The method, then:
as §1, §2, §3
LC3-II formation was selected as an indicator of autophagy in HeLa cells, and the LC3-II signal obtained from Western blot analysis was normalized to the pan-Akt signal and the data were expressed as a percentage relative to the control group treated with DMSO only, which is a vehicle.
In general terms: Immunoblotting shows a protein as a band on a membrane.

The subject of assay [4] is 5×FAD Alzheimer's disease model mice. Put plainly: Passive avoidance test in 5×FAD mice (long-term memory). Conditions: 5 mg/kg, 14 days / 2 weeks (FIG. 7). It counts as in vivo. The method, then:
In order to evaluate the efficacy of HN2210, HN2213, and HN2313 on Alzheimer's disease-related symptoms, specifically regarding 1) memory and cognitive impairment, 2) amyloid plaques, 3) neurofibrillary tangles (NFTs), and 4) brain inflammation, an in vivo efficacy assessment of HN2210, HN2213 and HN2313 was conducted using 5×FAD Alzheimer's disease model mice. The 5×FAD mice were purchased from Jackson Lab, USA (Cat #034840-JAX) and crossed once with C57bl6 mice to produce F1 heterozygous offspring (Het). The compound was administered via intraperitoneal injection to 6-month-old 5×FAD Het mice, followed by behavioral testing. The normal control mice, which were littermates of the 5×FAD Het mice, were aged to 6 months and received DMSO injection at the same volume.
Specifically, to mice trained to avoid bright light three times daily, an electric foot shock (1 mA, 300 g) was applied for 3 seconds in a dark room at the same time on the next day. After 24 hours, the mice were placed again in the same room, and the avoidance response by light, that is, the time taken to move from the bright room to the dark room was measured. At 24 hours after habituation training, the mice were placed back into the bright room, and the latency time for entering the dark room was recorded over a period of 720 seconds.

On to `CS(=O)(=O)Nc1ccc2c(c1F)COc1cc3c(cc1C2=O)OCO3` [HN2302, N-(7-fluoro-11-oxo-6,11-dihydro-[1,3]dioxolo[4′,5′:4,5]benzo[1,2-b]benzo[e]oxepin-8-yl)methanesulfonamide], for which, in assay [1], the “selective inhibition of mTORC2” value is listed as “selectively inhibit mTORC2”, the remaining activity at 40 µM turned out to be 73% and the inhibition at 40 µM was greater than 20%. Besides, the remaining activity at 40 µM in assay [2] turned out to be 122%. Further, the activity at 40 µM in assay [3] came out at 108%.
For `COc1cc2c(cc1OC)C(=O)c1cc(F)c(N3CCCCC3)cc1CC2` [HN2315, 3-fluoro-7,8-dimethoxy-2-(piperidin-1-yl)-10,11-dihydro-5H-dibenzo[a,d][7]annulen-5-one], in that order: “selectively inhibit mTORC2”, 28%, greater than 20%, 223% and 620%.
For the molecule `COc1cc2c(cc1OC)C(=O)c1cc(F)c(N3CCN(c4ccccc4)CC3)cc1CC2` [HN2316, 3-fluoro-7,8-dimethoxy-2-(4-phenylpiperazin-1-yl)-10,11-dihydro-5H-dibenzo[a,d][7]annulen-5-one], the remaining activity at 40 µM worked out at 20% in assay [1] and 38% in assay [2]. For the same molecule, the inhibition at 40 µM in assay [1] and in assay [2] was greater than 20% throughout. In assay [3], the activity at 40 µM stood at 256%.
Consider `O=C1c2cc3c(cc2OCc2c1ccc(NC1CC1)c2F)OCO3` [HN2318, 8-(cyclopropylamino)-7-fluoro-[1,3]dioxolo[4′,5′:4,5]benzo[1,2-b]benzo[e]oxepin-11(6H)-one], for which, in assay [1], the “selective inhibition of mTORC2” value is recorded as “selectively inhibit mTORC2”, the remaining activity at 40 µM is 42% and the inhibition at 40 µM was greater than 20%. In addition, the remaining activity at 40 µM in assay [2] was found to be 109%. For the same molecule, the activity at 40 µM in assay [3] turned out to be 227%.
With `O=C1c2cc3c(cc2OCc2c1ccc(NC1CCCC1)c2F)OCO3` [HN2319, 8-(cyclopentylamino)-7-fluoro-[1,3]dioxolo[4′,5′:4,5]benzo[1,2-b]benzo[e]oxepin-11(6H)-one], the remaining activity at 40 µM in assay [1] worked out at 79%; in assay [2] it was 78%. For the same molecule, the inhibition at 40 µM in assay [1] and in assay [2] was greater than 20% in each case. Further, the activity at 40 µM in assay [3] amounted to 157%.
For `COc1cc2c(cc1OC)C(=O)c1cc(F)c(NC3CCCC3)cc1CC2` [HN2321, 2-(cyclopentylamino)-3-fluoro-7,8-dimethoxy-10,11-dihydro-5H-dibenzo[a,d][7]annulen-5-one], in assay [1], the remaining activity at 40 µM was 140%. Also, in assay [2], the remaining activity at 40 µM was 33% and the inhibition at 40 µM is greater than 20%. In addition, in assay [3], the activity at 40 µM turned out to be 160%.
Taken in the same sequence, the figures for `COc1cccc(CNc2cc3c(cc2F)C(=O)c2cc4c(cc2OC3)OCO4)c1` [HN2325, 9-fluoro-8-((3-methoxybenzyl)amino)-[1,3]dioxolo[4′,5′:4,5]benzo[1,2-b]benzo[e]oxepin-11(6H)-one] were 87%, 44%, greater than 20% and 249%.
Turning to `COc1ccc(CNc2cc3c(cc2F)C(=O)c2cc4c(cc2OC3)OCO4)cc1` [HN2326, 9-fluoro-8-((4-methoxybenzyl)amino)-[1,3]dioxolo[4′,5′:4,5]benzo[1,2-b]benzo[e]oxepin-11(6H)-one], in assay [1], the “selective inhibition of mTORC2” value is recorded as “selectively inhibit mTORC2”, the remaining activity at 40 µM was found to be 69% and the inhibition at 40 µM was greater than 20%. Besides, the remaining activity at 40 µM in assay [2] was determined as 153%. The activity at 40 µM in assay [3] was found to be 404%.
For `COc1ccc(CNc2cc3c(cc2F)C(=O)c2cc4c(cc2OC3)OCO4)c(OC)c1` [HN2328, 8-((2,4-dimethoxybenzyl)amino)-9-fluoro-[1,3]dioxolo[4′,5′:4,5]benzo[1,2-b]benzo[e]oxepin-11(6H)-one], in that order: “selectively inhibit mTORC2”, 78%, greater than 20%, 86% and 340%.
For `COc1ccc(CNc2cc3c(cc2F)C(=O)c2cc4c(cc2OC3)OCO4)cc1OC` [HN2329, 8-((3,4-dimethoxybenzyl)amino)-9-fluoro-[1,3]dioxolo[4′,5′:4,5]benzo[1,2-b]benzo[e]oxepin-11(6H)-one], in assay [1], the remaining activity at 40 µM worked out at 36% and the inhibition at 40 µM was greater than 20%. In assay [2], the remaining activity at 40 µM is 57% and the inhibition at 40 µM is greater than 20%. Further, in assay [3], the activity at 40 µM was found to be 386%.
As for `CO[C@H]1C[C@@H]2CC[C@@H](C)[C@@](O)(O2)C(=O)C(=O)N2CCCC[C@H]2C(=O)O[C@H]([C@H](C)C[C@@H]2CC[C@@H](O)[C@H](OC)C2)CC(=O)[C@H](C)/C=C(\C)[C@@H](O)[C@@H](OC)C(=O)[C@H](C)C[C@H](C)/C=C/C=C/C=C/1C` [rapamycin, reference compound], the “passive avoidance latency time, % of the normal control level” value in assay [4] was roughly 36%.
